Source: patent publication US20260242843A1, “ASSAY SYSTEM FOR […] ANTIVIRAL AGENT USING INHIBITION OF VIRUS-DERIVED PROTEASE AS INDICATOR” (TOYAMA PREFECTURAL UNIVERSITY, priority 2023, published 2026)

What was measured:
IAPV protease = test: Measurement of IAPV protease activity using purified enzyme (fluorescent peptide substrate); type: biochemical, Israeli acute paralysis virus (IAPV); conditions: inhibitors at final concentration of 1 mM, pre-incubated at 37° C. for 1 hour; fluorescence in absence of inhibitors = 100%
Protocol: RNA was extracted from the midgut of virus-infected honey bees using ISOGEN II (Nippon Gene Co., Ltd.), and the extracted RNA was reverse-transcripted using PrimeScript RT reagent Kit (Takara) to obtain midgut-derived cDNA. Subsequently, the midgut-derived cDNA was subjected to PCR reaction (30 cycles of 98° C. for 30 seconds, 60° C. for 30 seconds, and 68° C. for 2 minutes) using KOD FX Neo (TOYOBO Co., Ltd.) with IAPV Protease Primer-F1 (SEQ ID NO: 59) and IAPV Protease Primer-R (SEQ ID NO: 60). As a result, a cDNA fragment of IAPV protease was obtained, consisting of the base sequence of SEQ ID NO: 57 encoding the amino acid sequence of SEQ ID NO: 58. The cDNA fragment of the IAPV protease was subjected to restriction enzyme treatment with BamHI and HindIII. The expression vector pET21a (Merck) was also subjected to restriction enzyme treatment with BamHI and HindIII. The restriction enzyme-treated cDNA fragment of the IAPV protease and the restriction enzyme-treated pET21a DNA fragment were subjected to a ligation reaction at 16° C. for 1 hour using Ligation High Ver. 2 (TOYOBO Co., Ltd.) to join the vector and the cDNA fragment, and the ligation product was used to transform E. coli. Colony PCR was performed, and an expression vector containing the cDNA fragment of the IAPV protease was obtained. E. coli Rosseta-gami B (Merck) was transformed with the expression vector of the IAPV protease. A preculture was prepared in 50 ml of LB medium containing ampicillin, followed by subculturing in 500 ml of LB medium containing ampicillin. Then, the culture was grown until the absorbance at 600 nm reached 0.5, at which point isopropyl β-D-thiogalactopyranoside (IPTG) was added to a final concentration of 1 mM. The culture was then incubated at 15° C. for 24 hours. The culture was centrifuged (8000 rpm, 10 minutes, 4° C.) to collect E. coli cells. The collected E. coli cells were dissolved in 10 ml of a sonication buffer (50 mM Tris-HCl, pH 8.0; 50 mM NaCl; 1 mM EDTA; 1 mM DTT), and disrupted by ultrasonic disruption (sonication). The disruption solution was centrifuged (12000 rpm, 10 minutes, 4° C.) to obtain a supernatant of this bacterial cell disruption solution. The IAPV protease was then purified from the resulting supernatant to yield a purified protein solution. Purification was carried out by cation exchange chromatography using HiPrep SP XL 16/10 (Cytiva) with a 20 mM Tris-HCl (pH 7.5) buffer and a 20 mM Tris-HCl (pH 7.5) buffer containing 1 M NaCl, and by gel filtration chromatography using HiLoad 16/600 Superdex 200 (Cytiva) with a 50 mM phosphate buffer (pH 7.0) containing 0.15 M NaCl.
As a substrate for the measurement of IAPV protease activity, either Dnp-PNDIV DVTMQK(Nma)-NH2 or Nma-[…] (Dnp)-NH2, in which a peptide was linked to a fluorescent substrate, was synthesized and used. When the activity measurement substrate is cleaved by the protease, it emits fluorescence. The activity measurement substrate was prepared at a concentration of 20 μM in an assay buffer (50 mM citric acid buffer, pH 6.0; 150 mM NaCl; 1 mM EDTA; 1 mM DTT). The purified protein solution of the IAPV protease obtained in Example 10 was used as the enzyme solution. 50 μl of the assay buffer containing the activity measurement substrate was mixed with 50 μl of the enzyme solution, and the mixture was reacted at 37° C. for 30 minutes in a 96-well black plate, in the presence or absence of various inhibitors listed in Table 4. Fluorescence intensity was then measured using a TECAN fluorescence plate reader (Tecan Japan Co., Ltd.) at an excitation wavelength of 340 nm and a fluorescence emission wavelength of 440 nm. The various inhibitors were prepared at a final concentration of 1 mM and pre-incubated at 37° C. for 1 hour prior to the enzymatic reaction.

[1] = tested on: virus-infected honey bees; test: Suppression of individual honey bee mortality by agent administration (aseptic in vivo agent evaluation rearing method); conditions: for viability compared to the control group: 100 μM in 50% sucrose solution, virus-infected honey bee population No. 2, FIG. 15
Protocol: A new aseptic in vivo agent evaluation rearing method for honey bees was established. Incubators and rearing boxes were sterilized with 70% ethanol after cleaning. Each hive box was populated with 30 to 35 honey bees. The honey bees were fed with a 50% sucrose solution (aseptically dissolved in sterile water) and a 50% sucrose solution containing pollen dissolved therein. The rearing temperature was maintained at 30° C. The 50% sucrose solutions were replaced daily, and the number of individual honey bees was measured at each replacement. Agents were administered dissolved in the 50% sucrose solutions. At the time when the viability had decreased to 50% or less of the initial level, total RNA was collected from the surviving individuals, and histochemical analyses were performed on the midgut and other tissues. Pharmacological analyses were conducted using the collected RNA, tissues, and blood.
E-64 ([(2S,3S)-3-carboxyoxirane-2-carbonyl]-L-leucine (4-guanidinobutyl)amide hemihydrate, manufactured by PEPTIDE INSTITUTE, INC.) was dissolved in a 50% sucrose solution at concentrations of 200 μM, 100 μM, and 50 μM. The resulting solutions were administered to honey bees in the honey bee populations Nos. 2 and 5, in which viral infection had been observed. Only 50% sucrose was administered to a control group (None). The E-64-containing solutions were replaced daily, and changes in the number of individual honey bees were measured at each replacement. FIGS. 9 and 10 show the results. Rearing was conducted using the aseptic in vivo agent evaluation rearing method, which has been described above.
E-64c (manufactured by PEPTIDE INSTITUTE, INC.) or E-64d (manufactured by PEPTIDE INSTITUTE, INC.) was dissolved in a 50% sucrose solution at a concentration of 100 μM. The resulting solutions were administered to honey bees in the honey bee population No. 2, in which viral infection had been observed. […] The solution containing E-64c or E-64d was replaced daily, and changes in the number of individual honey bees were measured at each replacement. […]

[2] = tested on: fusion protein of Maltose Binding Protein (MBP)-IAPV protease; test: IAPV protease activity measurement using crude enzyme solution of expressed MBP-IAPV protease fusion protein; type: biochemical, Israeli acute paralysis virus (IAPV); conditions: in the presence of E-64, absence of E-64 = 100%
Protocol: Midgut-derived cDNA was obtained from virus-infected honey bees in the same manner as in Example 10 and then subjected to PCR reaction (30 cycles of 98° C. for 30 seconds, 60° C. for 30 seconds, and 68° C. for 2 minutes) using KOD FX Neo (TOYOBO Co., Ltd.) with IAPV Protease Primer-F2 (SEQ ID NO: 61) and IAPV Protease Primer-R (SEQ ID NO: 60). As a result, a cDNA fragment of IAPV protease was obtained, consisting of the base sequence of SEQ ID NO: 57 encoding the amino acid sequence of SEQ ID NO: 58. The cDNA fragment of the IAPV protease was subjected to restriction enzyme treatment with BamHI and HindIII. […] Then, the culture was grown until the absorbance at 600 nm reached 0.5, at which point IPTG was added to a final concentration of 1 mM. […]
Subsequently, using a crude enzyme solution of the expressed fusion protein of IAPV protease as the enzyme solution, the IAPV protease activity was measured using the same method as in Example 11, in the presence or absence of E-64.
The fluorescence intensity measured in the absence of E-64 was reduced by the addition of E-64. When the fluorescence intensity measured in the absence of E-64 is defined as 100% relative activity, the relative activity of IAPV protease calculated from the fluorescence intensity measured in the presence of E-64 was 9% (FIG. 14). […]

[3] = tested on: virus-infected honey bees; test: Recovery from intestinal tract damage in honey bees (BPB administration test); type: in vivo; conditions: E-64 100 μM in 50% sucrose, reared 10 days; BPB 10 mg/ml for 24 hours; FIG. 13
Protocol: Virus-infected and uninfected honey bees were reared for 10 days while receiving 50% sucrose. During the rearing period, Bromophenol Blue (BPB) (FUJIFILM Wako Pure Chemical Corporation) was dissolved in a 50% sucrose solution at a concentration of 10 mg/ml and administered to the virus-infected and uninfected honey bees for 24 hours. When the viability of the virus-infected group had decreased to approximately 50%, relative to the number of individual honey bees before rearing set to 100%, BPB was administered to each group of honey bees. After BPB administration, blood was collected from honey bees (≥30 individuals), and the concentration of BPB in the blood was measured by absorbance at 500 nm using a microvolume spectrophotometer, NanoDrop One (ThermoFisher Scientific).
Virus-infected honey bees were divided into a control group (None) to which 50% sucrose was administered, and an administered group (E-64) to which a solution of E-64 (PEPTIDE INSTITUTE, INC.) dissolved at 100 μM in 50% sucrose was administered. The honey bees were reared for 10 days. […] After BPB administration, blood was collected from honey bees (≥30 individuals), and the concentration of BPB in the blood was measured by absorbance at 500 nm using a microvolume spectrophotometer, NanoDrop One (ThermoFisher Scientific).

CCOC(=O)[C@H]1O[C@@H]1C(=O)N[C@@H](CC(C)C)C(=O)NCCc1ccc(O)cc1 [JPM-OEt]
Relative Activity (%) of IAPV protease (IAPV protease): 17%

CCCNC(=O)[C@H]1O[C@@H]1C(=O)N[C@H](C(=O)N1CCC[C@H]1C(=O)OC)[C@@H](C)CC [CA074 methyl ester, [(2S,3S)-3-propylcarbamoyloxirane-2-carbonyl]-L-isoleucyl-L-proline methyl ester]
Relative Activity (%) of IAPV protease (IAPV protease): 32%

O=C(O)c1cc2ccccc2s1 [TNCA, benzo[b]thiophene-2-carboxylic acid]
Relative Activity (%) of IAPV protease (IAPV protease): 71%

O=C(NC1CC1)C(=O)C(Cc1ccccc1)NC(=O)[C@H]1CCC(=O)N1Cc1ccccc1 (some centres unmarked) [alicapistat]
Relative Activity (%) of IAPV protease (IAPV protease): 22%

Cc1nc(-c2ccccc2F)c(C(=O)NC(Cc2ccccc2)C(=O)C(N)=O)o1 (centres unmarked) [dazcapistat]
Relative Activity (%) of IAPV protease (IAPV protease): 29%

CCOC(=O)[C@H]1O[C@@H]1C(=O)N[C@@H](CC(C)C)C(=O)NCCC(C)C [E-64d, [(2S,3S)-3-ethoxycarbonyloxirane-2-carbonyl]-L-leucine (3-methylbutyl)amide]
Relative Activity (%) of IAPV protease (IAPV protease): 23% | viability compared to the control group [1]: higher viability compared to the control group

CCCNC(=O)[C@H]1O[C@@H]1C(=O)N[C@H](C(=O)N1CCC[C@H]1C(=O)O)[C@@H](C)CC [CA074, [(2S,3S)-3-propylcarbamoyloxirane-2-carbonyl]-L-isoleucyl-L-proline]
Relative Activity (%) of IAPV protease (IAPV protease): 4%

CC(C)CCNC(=O)[C@H](CC(C)C)NC(=O)[C@H]1O[C@@H]1C(=O)O [E-64c, [(2S,3S)-3-carboxyoxirane-2-carbonyl]-L-leucine (3-methylbutyl)amide]
Relative Activity (%) of IAPV protease (IAPV protease): 22% | viability compared to the control group [1]: higher viability compared to the control group

[(2S,3S)-3-carboxyoxirane-2-carbonyl]-L-leucine (4-guanidinobutyl)amide hemihydrate [E-64]
Relative Activity (%) of IAPV protease (IAPV protease): 5% | relative activity of IAPV protease [2]: 9% | individual honey bee mortality (viability) ([1]; E-64 at 200 μM, 100 μM, 50 μM in 50% sucrose solution, virus-infected honey bee populations Nos. 2 and 5, FIGS. 9 and 10): suppressed individual honey bee mortality | concentration of BPB in the blood (absorbance at 500 nm) [3]: reduced the concentration of BPB in the blood
